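Cells were grown in 96-well plates and exposed to each compound for 48 hours at five concentrations; endpoints were interpolated linearly between bracketing concentrations, or set to the highest concentration if not reached. At the GI50, growth is halved.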 Activity calls are given as the source filed them. No stated cut-off is given here; in the data, active = GI50 up to about 1.1 µM and inactive = higher.
Tests used:
Test in all cases: DTP human tumour cell line panel, 48 h
786-0 = test system: 786-0
SN12C = test system: SN12C
TK-10 = test system: TK-10
A498 = test system: A498
NCI-H522 = test system: NCI-H522
OVCAR-5 = test system: OVCAR-5
COLO 205 = test system: COLO 205
Hs-578T = test system: Hs-578T
MDA-MB-231 = test system: MDA-MB-231
PC-3 = test system: PC-3
RPMI-8226 = test system: RPMI-8226
NCI/ADR-RES = test system: NCI/ADR-RES
M14 = test system: M14
SW-620 = test system: SW-620
HOP-92 = test system: HOP-92
SF-268 = test system: SF-268
OVCAR-4 = test system: OVCAR-4
OVCAR-8 = test system: OVCAR-8
RXF 393 = test system: RXF 393

| Structure (SMILES) | GI50 (786-0) | GI50 (SN12C) | GI50 (TK-10) | GI50 (A498) | GI50 (NCI-H522) | GI50 (OVCAR-5) | GI50 (COLO 205) | GI50 (Hs-578T) | GI50 (MDA-MB-231) | GI50 (PC-3) | GI50 (RPMI-8226) | GI50 (NCI/ADR-RES) | GI50 (M14) | GI50 (SW-620) | GI50 (HOP-92) | GI50 (SF-268) | GI50 (OVCAR-4) | GI50 (OVCAR-8) | GI50 (RXF 393) |
| --- | --- | --- | --- | --- | --- | --- | --- | --- | --- | --- | --- | --- | --- | --- | --- | --- | --- | --- | --- |
| O=P(O)(O)CCP(=O)(O)O | > 100 µM (inactive) | > 100 µM (inactive) | > 100 µM (inactive) | > 100 µM (inactive) | > 100 µM (inactive) | > 100 µM (inactive) | > 100 µM (inactive) | > 100 µM (inactive) | > 100 µM (inactive) | > 100 µM (inactive) | > 100 µM (inactive) | > 100 µM (inactive) | > 100 µM (inactive) | > 100 µM (inactive) | > 100 µM (inactive) | > 100 µM (inactive) | > 100 µM (inactive) | > 100 µM (inactive) | > 100 µM (inactive) |
| CCCCCCCCCC(=O)CC(=O)c1c(O)cc(O)cc1O | 28 µM (inactive) | 20.6 µM (inactive) | 30.4 µM (inactive) | 22.6 µM (inactive) | 20.2 µM (inactive) | 19.4 µM (inactive) | 26.6 µM (inactive) | 18.5 µM (inactive) | 28.6 µM (inactive) | 17.9 µM (inactive) | 16.1 µM (inactive) | 16.6 µM (inactive) | 17.1 µM (inactive) | 25.6 µM (inactive) | 20 µM (inactive) | 18.4 µM (inactive) | 16.3 µM (inactive) | 17.3 µM (inactive) | 11.7 µM (inactive) |
| O=C(/C=C/c1ccccc1)Nc1ccccc1SCCCCl | 13.4 µM (inactive) | 8.93 µM (inactive) | 55.7 µM (inactive) | 9.08 µM (inactive) | 4.07 µM (inactive) | 34 µM (inactive) | 15.6 µM (inactive) | 6.81 µM (inactive) | 11.4 µM (inactive) | 9.91 µM (inactive) | 27.4 µM (inactive) | 3.66 µM (inactive) | 20.1 µM (inactive) | 6.46 µM (inactive) | 3.67 µM (inactive) | 14.4 µM (inactive) | 12.1 µM (inactive) | 16.5 µM (inactive) | 8.43 µM (inactive) |
| N=C(N)Nc1ccc(CC(N)NCC(=O)O)cc1 (configuration not stated) | > 25 µM (inactive) | > 25 µM (inactive) | > 25 µM (inactive) | > 25 µM (inactive) | > 25 µM (inactive) | > 25 µM (inactive) | > 25 µM (inactive) | > 25 µM (inactive) | > 25 µM (inactive) | > 25 µM (inactive) | > 25 µM (inactive) | > 25 µM (inactive) | > 25 µM (inactive) | > 25 µM (inactive) | > 25 µM (inactive) | > 25 µM (inactive) | > 25 µM (inactive) | > 25 µM (inactive) | > 25 µM (inactive) |
| C/C(=N/NC(=S)Nc1ccccc1Cl)c1cccc(/C(C)=N\NC(=S)Nc2ccccc2Cl)n1 | 7.33 µM (inactive) | > 100 µM (inactive) | 49.1 µM (inactive) | > 100 µM (inactive) | 46.7 µM (inactive) | > 100 µM (inactive) | 56.8 µM (inactive) | > 100 µM (inactive) | 12.2 µM (inactive) | 36.1 µM (inactive) | > 100 µM (inactive) | > 100 µM (inactive) | 22 µM (inactive) | 11.1 µM (inactive) | > 100 µM (inactive) | > 100 µM (inactive) | 28.4 µM (inactive) | 11.3 µM (inactive) | > 100 µM (inactive) |
| O=[N+]([O-])c1ccc(-c2cc(O)c3nc4ccccc4n3c2)cc1 | > 90.6 µM (inactive) | > 100 µM (inactive) | > 100 µM (inactive) | > 100 µM (inactive) | > 93.1 µM (inactive) | > 100 µM (inactive) | > 100 µM (inactive) | > 100 µM (inactive) | > 100 µM (inactive) | > 100 µM (inactive) | > 100 µM (inactive) | > 100 µM (inactive) | > 100 µM (inactive) | > 100 µM (inactive) | > 65.9 µM (inactive) | > 56.5 µM (inactive) | > 100 µM (inactive) | 60.1 µM (inactive) | > 100 µM (inactive) |
| O=c1[nH]cc(-c2c[nH]c3ccccc23)nc1-c1c[nH]c2ccccc12 | 11.3 µM (inactive) | 13.2 µM (inactive) | 11.7 µM (inactive) | 14.7 µM (inactive) | 6.79 µM (inactive) | 11.2 µM (inactive) | 10.9 µM (inactive) | 14.2 µM (inactive) | 22.3 µM (inactive) | 14.5 µM (inactive) | 9.73 µM (inactive) | 16.4 µM (inactive) | 10.7 µM (inactive) | 4.9 µM (inactive) | 12.3 µM (inactive) | 13 µM (inactive) | 6.58 µM (inactive) | 12.8 µM (inactive) | 2.74 µM (inactive) |
| CC(=O)c1ccc(Br)cc1NC1=CC(=O)c2ncccc2C1=O | 3.71 µM (inactive) | 7 µM (inactive) | 17.6 µM (inactive) | 1.57 µM (inactive) | 3.27 µM (inactive) | 13.1 µM (inactive) | 3.18 µM (inactive) | 17.1 µM (inactive) | 1.88 µM (inactive) | 3.95 µM (inactive) | 2.18 µM (inactive) | 3.9 µM (inactive) | 2.22 µM (inactive) |  | 12.2 µM (inactive) | 7.26 µM (inactive) | 1.83 µM (inactive) | 5.53 µM (inactive) | 5.13 µM (inactive) |
| CC(=O)Nc1ccc(OC/C(N)=N/NC(=O)c2ccncc2)cc1 | > 100 µM (inactive) | > 100 µM (inactive) | > 100 µM (inactive) | > 100 µM (inactive) | > 100 µM (inactive) | > 100 µM (inactive) | > 100 µM (inactive) | > 100 µM (inactive) | > 100 µM (inactive) | > 100 µM (inactive) | > 100 µM (inactive) | > 100 µM (inactive) | > 100 µM (inactive) | > 100 µM (inactive) | > 100 µM (inactive) | > 100 µM (inactive) | > 100 µM (inactive) | > 100 µM (inactive) | > 100 µM (inactive) |
| O=C1N[C@@H]2c3c(Br)sc(Br)c3C(=O)[C@@H]2O1 | 7.11 µM (inactive) | 2.93 µM (inactive) | 6 µM (inactive) | 16.7 µM (inactive) | 0.703 µM (active) | 13.7 µM (inactive) | 2.56 µM (inactive) | 19.7 µM (inactive) | 2.41 µM (inactive) | 6.41 µM (inactive) | 5.12 µM (inactive) | 3.66 µM (inactive) | 1.97 µM (inactive) | 1.96 µM (inactive) | 5.14 µM (inactive) | 7.66 µM (inactive) | 1.79 µM (inactive) | 2.11 µM (inactive) | 2.2 µM (inactive) |
| O=C(Nc1ccn(C2CC(I)C(COC(c3ccccc3)(c3ccccc3)c3ccccc3)O2)c(=O)n1)c1ccccc1 (configuration not stated) | 8.34 µM (inactive) | 4.36 µM (inactive) | 15.9 µM (inactive) | 7.03 µM (inactive) | 11 µM (inactive) | > 21.5 µM (inactive) | 7.59 µM (inactive) | 3.03 µM (inactive) | 9.57 µM (inactive) | 2.36 µM (inactive) | 7.26 µM (inactive) | 9.75 µM (inactive) | 10.8 µM (inactive) | 14 µM (inactive) | 5.14 µM (inactive) | 12 µM (inactive) | 3.75 µM (inactive) | 9.25 µM (inactive) | 8.59 µM (inactive) |
| Oc1nnnc2c1sc1ncccc12 | > 100 µM (inactive) | > 100 µM (inactive) | > 100 µM (inactive) | 39.8 µM (inactive) | > 100 µM (inactive) | > 100 µM (inactive) | > 100 µM (inactive) | > 100 µM (inactive) | 68.2 µM (inactive) | > 100 µM (inactive) |  | > 100 µM (inactive) | > 100 µM (inactive) | > 100 µM (inactive) | 47.8 µM (inactive) | > 100 µM (inactive) | > 100 µM (inactive) | > 100 µM (inactive) | > 100 µM (inactive) |
| COc1cc(N(CCC#N)CCC#N)ccc1C(/N=N/c1cccc([N+](=O)[O-])c1)=N\NC(=O)c1ccc(C)cc1 | > 100 µM (inactive) | > 100 µM (inactive) | 31.7 µM (inactive) | > 100 µM (inactive) | 26.5 µM (inactive) | > 100 µM (inactive) | > 100 µM (inactive) | > 100 µM (inactive) | > 100 µM (inactive) | > 100 µM (inactive) | 18.6 µM (inactive) | 67.5 µM (inactive) | > 100 µM (inactive) | > 100 µM (inactive) | 33.9 µM (inactive) | > 100 µM (inactive) | 53.7 µM (inactive) | 89.5 µM (inactive) | > 100 µM (inactive) |
| Cc1cc2ccccc2c[n+]1CC(=O)CC([O-])(C(F)(F)F)C(F)(F)F | > 100 µM (inactive) | > 100 µM (inactive) |  | 36.1 µM (inactive) | 85.1 µM (inactive) | > 100 µM (inactive) | > 100 µM (inactive) | > 100 µM (inactive) | > 100 µM (inactive) | > 100 µM (inactive) | 69.7 µM (inactive) | > 100 µM (inactive) | > 100 µM (inactive) | > 100 µM (inactive) | 58.1 µM (inactive) | > 100 µM (inactive) | > 100 µM (inactive) | > 100 µM (inactive) | 37.3 µM (inactive) |
| C=CCOc1ccc(C2C(C(=O)OCC)C(=O)CC(C)(O)C2C(=O)OCC)cc1OC (configuration not stated) | > 100 µM (inactive) | > 100 µM (inactive) | > 100 µM (inactive) | > 100 µM (inactive) | > 100 µM (inactive) | > 100 µM (inactive) | > 100 µM (inactive) | > 100 µM (inactive) | > 100 µM (inactive) | > 100 µM (inactive) | > 100 µM (inactive) | > 100 µM (inactive) | > 100 µM (inactive) | > 100 µM (inactive) | > 100 µM (inactive) | > 100 µM (inactive) | > 100 µM (inactive) | > 100 µM (inactive) | > 100 µM (inactive) |

— ChEMBL document CHEMBL1201862, “PubChem BioAssay data set” (2004)
